In brackets after ≈: the same amount, converted by molar mass. Entries after “also recorded” stand apart in the source; their conditions may differ. Where two headings read alike, the source gives them in different places. Blank lines part the entries; values can stand above or below the compound they belong to.
Tests used:
[1] = test system: Pgp at the human BBB; experiment: [^11C]-N-desmethyl-loperamide PET after tariquidar in healthy human subjects; type: in vivo; details: humans, without tariquidar
[2] = target: T1, P-glycoprotein (Pgp) at the blood-brain barrier (Homo sapiens, UniProt P08183); type: in vivo; details: for EC50: tariquidar plasma concentration at end of PET scan
[3] = type: in vivo, human; details: humans, maximum administered dose 8 mg/kg
[4] = test system: breast cancer resistance protein (BCRP, ABCG2); details: cited from earlier work
[5] = test system: P-glycoprotein (Pgp) at the blood-brain barrier; details: cited from earlier work
[6] = target: T1, P-glycoprotein (Pgp) at the blood-brain barrier; details: (R)-[^11C]verapamil whole brain, tariquidar 2 mg/kg, n=5, cited from earlier work
[7] = test system: Pgp at the human BBB; details: 2 mg/kg dose; cited from earlier work
[8] = previous studies (human and rat); cited from earlier work
[9] = Unmetabolized; type: in vivo, human; details: AUC 0-40 min, different tariquidar doses vs 0 mg/kg
[10] = Safety monitoring / adverse events after tariquidar infusion; type: in vivo, human; details: for Tolerability: healthy subjects, 3, 4, 6 and 8 mg/kg i.v. infusion
[11] = humans; cited from earlier work
[12] = rats, bolus administration of 30 mg/kg; cited from earlier work
[13] = test system: Pgp in CD56-positive lymphocytes; details: single i.v. dose of 2 mg/kg, over 24 h; cited from earlier work
[14] = rat, tariquidar plasma concentration at end of PET scan, 0-60 min

T1 sequence (P08183 whole entry): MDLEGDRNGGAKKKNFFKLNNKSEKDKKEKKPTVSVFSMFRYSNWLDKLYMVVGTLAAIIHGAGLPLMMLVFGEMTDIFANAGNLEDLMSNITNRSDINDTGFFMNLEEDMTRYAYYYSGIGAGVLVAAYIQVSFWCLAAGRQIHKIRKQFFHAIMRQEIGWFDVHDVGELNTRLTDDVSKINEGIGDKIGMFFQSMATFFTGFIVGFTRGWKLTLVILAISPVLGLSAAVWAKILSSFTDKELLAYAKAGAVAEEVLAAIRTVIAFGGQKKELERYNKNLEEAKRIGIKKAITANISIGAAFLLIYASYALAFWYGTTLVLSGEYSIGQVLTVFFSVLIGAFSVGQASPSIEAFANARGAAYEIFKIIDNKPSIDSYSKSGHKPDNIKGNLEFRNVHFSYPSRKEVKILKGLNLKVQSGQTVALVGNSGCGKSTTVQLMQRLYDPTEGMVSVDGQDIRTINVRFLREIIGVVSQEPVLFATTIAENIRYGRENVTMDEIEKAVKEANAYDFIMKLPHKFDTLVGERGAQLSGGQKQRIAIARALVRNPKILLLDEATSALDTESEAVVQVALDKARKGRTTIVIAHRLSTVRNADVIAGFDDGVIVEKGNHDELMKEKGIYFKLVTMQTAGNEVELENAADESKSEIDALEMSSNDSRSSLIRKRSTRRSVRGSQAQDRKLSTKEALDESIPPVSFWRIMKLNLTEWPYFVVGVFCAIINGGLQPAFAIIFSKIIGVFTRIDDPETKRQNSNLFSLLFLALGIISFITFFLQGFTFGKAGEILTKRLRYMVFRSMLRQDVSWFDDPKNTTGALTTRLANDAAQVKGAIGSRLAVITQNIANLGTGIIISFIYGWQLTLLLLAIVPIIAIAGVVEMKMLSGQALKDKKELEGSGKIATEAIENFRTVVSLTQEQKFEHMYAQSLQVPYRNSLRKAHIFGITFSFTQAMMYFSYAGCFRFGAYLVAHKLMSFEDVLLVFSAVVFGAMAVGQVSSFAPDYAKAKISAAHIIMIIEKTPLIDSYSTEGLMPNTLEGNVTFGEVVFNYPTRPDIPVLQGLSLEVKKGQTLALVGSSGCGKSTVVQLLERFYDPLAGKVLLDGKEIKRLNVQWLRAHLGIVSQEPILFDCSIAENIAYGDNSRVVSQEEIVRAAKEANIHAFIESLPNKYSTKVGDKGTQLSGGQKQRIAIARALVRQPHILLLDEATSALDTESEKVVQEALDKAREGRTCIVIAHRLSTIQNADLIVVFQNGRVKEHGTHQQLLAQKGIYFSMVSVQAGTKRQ

Compound: CNC(=O)C(CCN1CCC(O)(c2ccc(Cl)cc2)CC1)(c1ccccc1)c1ccccc1 [[^11C]-N-desmethyl-loperamide]
Baseline brain uptake lower as compared to (R)-[^11C]verapamil [1]: 2 fold

EC50 ([2]; EC50, K1–K1 baseline (1T2K), human, 0-10 min): 806 nM
EC50 ([2]; EC50, K1–K1 baseline (2T4K), human, 0-40 min): 813 nM
EC50 ([2]; EC50, VT–VT baseline (2T4K), human, 0-40 min): 867 nM
n (Hill coefficient), K1–K1 baseline (1T2K) ([2]; human, 0-10 min): 6.2±3.5
n (Hill coefficient), K1–K1 baseline (2T4K) ([2]; human, 0-40 min): 6.3±3.5
n (Hill coefficient), VT–VT baseline (2T4K) ([2]; human, 0-40 min): 11.3±5.4
Tariquidar plasma concentration at which brain VT approached plateau levels ([2]; humans): > 1,000 ng/mL
Tariquidar plasma concentration at time of PET [3]: up to 1,312 ng/mL
Compound: COc1cc2c(cc1OC)CN(CCc1ccc(NC(=O)c3cc(OC)c(OC)cc3NC(=O)c3cnc4ccccc4c3)cc1)CC2 [tariquidar]
Inhibition of BCRP [4]: inhibits
EC50, K1–K1 baseline (2T4K) [5, 14]: 441 ± 81 ng/mL (≈ 0.682 µM)
EC50, VT–VT baseline (2T4K) [5, 14]: 544 ± 32 ng/mL (≈ 0.841 µM)
Tariquidar plasma concentration at which brain VT approached plateau levels ([5]; rats): > 1,000 ng/mL
K1 (1T2K) ([6]; 0-10 min): 0.051±0.006 (6) mL·mL^−1·min^−1
K1 (2T4K) ([6]; 0-40 min): 0.051±0.008 (11) mL·mL^−1·min^−1
VT (2T4K) ([6]; 0-40 min): 0.788±0.087 (2) mL·mL^−1
k2 (2T4K) ([6]; 0-40 min): 0.123±0.052 (57) min^−1
k3 (2T4K) ([6]; 0-40 min): 0.156±0.080 (123) min^−1
k4 (2T4K) ([6]; 0-40 min): 0.191±0.063 (42) min^−1
Increase in brain penetration of [^11C]-N-desmethyl-loperamide [7]: 25%
Effect of tariquidar on degree of plasma protein binding of (R)-[^11C]verapamil [8]: does not influence
Effect on concentration of unmetabolized (R)-[^11C]verapamil in plasma [9]: lacked pharmacokinetic interactions; also recorded: did not affect
Hypotension adverse event ([10]; 8 mg/kg group, infusion stopped 20 min prematurely (7.2 mg/kg administered)): one case of moderate hypotension
Tolerability [10]: well tolerated at doses 4-times the clinically tried
Tolerability ([10]; listed as Tariquidar): generally well tolerated
Dysgeusia (relationship with study drug could not be excluded) ([10]; healthy subjects, 3-8 mg/kg): 6 out of 20
Vertigo (relationship with study drug could not be excluded) ([10]; healthy subjects, 3-8 mg/kg, 20 subjects): 3 subjects
Terminal elimination half-life from plasma [11]: 13 to 23 h
Tariquidar plasma concentration at the time of the PET scan [12]: up to 7,000 ng/mL
Block of Pgp in CD56-positive lymphocytes [13]: 100%
